Measurements reported in patent publication US7858618B2, “Compounds” (Boehringer Ingelheim International GmbH, priority 2006, dated 2010).
pKi: −log10 of the molar value.

Legend:
hBK1 receptor = molecular target: T1, hBK1 receptor (Homo sapiens, UniProt P46663); experiment: hBK1 receptor binding (displacement of [3H]-kallidin (DesArg10, Leu9) from membranes of CHO cells expressing the hBK1 receptor); conditions: CHO cell membranes expressing hBK1 receptor; 0.5 to 1.0 nM [3H]-kallidin (DesArg10, Leu9); 60 minutes at room temperature
T1 construct: expressed in transfected cells; host or cells: CHO cells
T1 sequence (P46663 1-353): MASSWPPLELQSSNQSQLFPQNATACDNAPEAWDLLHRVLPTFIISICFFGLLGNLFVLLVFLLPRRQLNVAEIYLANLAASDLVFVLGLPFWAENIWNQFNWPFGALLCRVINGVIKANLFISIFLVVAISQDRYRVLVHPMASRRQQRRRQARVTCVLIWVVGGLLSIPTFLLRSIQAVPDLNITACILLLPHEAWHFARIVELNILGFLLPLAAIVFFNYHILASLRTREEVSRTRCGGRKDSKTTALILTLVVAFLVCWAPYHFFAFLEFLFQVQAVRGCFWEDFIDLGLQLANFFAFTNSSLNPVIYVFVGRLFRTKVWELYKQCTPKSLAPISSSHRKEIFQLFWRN
Procedure: Description of the Method of hBK1 Receptor Binding
CHO cells expressing the hBK1 receptor are cultivated in Dulbecco's modified medium. The medium from confluent cultures is removed and the cells are washed with PBS buffer, scraped off and isolated by centrifugation. The cells are then homogenized in suspension and the homogenate is centrifuged and resuspended. The protein content is determined and the membrane preparation obtained in this manner is then frozen at −80° C.
After thawing, 200 μl of the homogenate (50 to 100 μg of proteins/assay) are incubated at room temperature with 0.5 to 1.0 nM of kallidin (DesArg10, Leu9), [3,4-prolyl-3,43H(N)] and increasing concentrations of the test substance in a total volume of 250 μl for 60 minutes. The incubation is terminated by rapid filtration through GF/B glass fibre filters which had been pretreated with polyethyleneimine (0.3%). The protein-bound radioactivity is measured in a TopCount NXT. Non-specific binding is defined as radioactivity bound in the presence of 1.0 μM of kallidin (DesArg10, Leu9), [3,4-prolyl-3,43H(N)]. The concentration/binding curve is analysed using a computer-assisted nonlinear curve fitting. The Ki which corresponds to the test substance is determined using the data obtained in this manner. […]

Structure (SMILES) | pKi (hBK1 receptor) | melting point [°C]
COc1cc(C)c(S(=O)(=O)N(C)CCOCC(=O)N(C)CC2CCC(N3CCN(C)CC3)CC2)c(C)c1 (stereo not shown) [(420)] | 8.04 | 
COc1cc(C)c(S(=O)(=O)N(C)CCOCC(=O)N(C)[C@@H]2CCC[C@H](N3CCN(C)CC3)C2)c(C)c1 [(421)] | 8.06 | 
COc1cc(C)c(S(=O)(=O)N(C)CCOCC(=O)N(C)C[C@@H]2CC[C@H](CN3CCCC3)C2)c(C)c1 [(425)] | 8.08 | 
COc1cc(C)c(S(=O)(=O)N(C)CCOCC(=O)N(C)C[C@H]2CC[C@@H](N(C)CCN(C)C)CC2)c(C)c1 [(428)] | 8.20 | 
COc1cc(C)c(S(=O)(=O)N(C)CCOCC(=O)N(C)[C@H]2CC[C@H](CCN3CCCC3)CC2)c(C)c1 [(439)] | 8.12 | 
COc1cc(C)c(S(=O)(=O)N(C)CCOCC(=O)N(C)[C@H]2CC[C@@H](CN3CCC(N(C)C)C3)CC2)c(C)c1 (stereo partly shown) [(444)] | 8.16 | 
COc1cc(C)c(S(=O)(=O)N(C)CCOCC(=O)N(C)Cc2ccc(N3CCC(N4CCCC4)C3)cc2Cl)c(C)c1 (stereo not shown) [(445)] | 8.25 | 
COc1cc(C)c(S(=O)(=O)N(C)CCOCC(=O)N(C)C2CCCN(C3CCN(C)CC3)CC2)c(C)c1 (stereo not shown) [(451)] | 8.05 | 
COc1cc(Cl)cc(Cl)c1S(=O)(=O)N(C)CCOCC(=O)N(C)[C@@H]1CCN(C2CCN(C)CC2)C1 [(469)] | 8.10 | 
COc1cc(C)c(S(=O)(=O)N(C)CCOCC(=O)N(C)C2CCC(C3CCN(C)CC3)CC2)c(C)c1 (stereo not shown) [(477)] | 8.24 | 
COc1cc(C)c(S(=O)(=O)N(C)CCOCC(=O)N(C)[C@@H]2CCN(C(=O)CCN3CCCC3)C2)c(C)c1 [(580)] | 8.21 | 
COc1cc(C)c(S(=O)(=O)N(C)CCOCC(=O)N(C)C[C@]2(C)CC[C@H](CN3CCC3)C2(C)C)c(C)c1 [(582)] | 8.03 | 
COc1cc(C)c(S(=O)(=O)N(C)CCOCC(=O)N(C)C[C@H]2CC[C@@H](N3CCN(C)CC3)CC2)c(C)c1 [(584)] | 8.05 | 
COc1cc(C)c(S(=O)(=O)N(C)CCOCC(=O)N(C)CC2CCC(N3CCCC(N(C)C)C3)CC2)c(C)c1 (stereo not shown) [(587)] | 8.02 | 
COc1cc(C)c(S(=O)(=O)N(C)CCOCC(=O)N(C)[C@H]2CC[C@@H](N3CCN(C)CC3)CC2)c(C)c1 [(589)] | 8.29 | 
COc1cc(C)c(S(=O)(=O)N(C)CCOCC(=O)N(C)[C@H]2CC[C@@H](OCCN(C)C)CC2)c(C)c1 [(613)] | 8.01 | 
COc1cc(C)c(S(=O)(=O)N(C)CCOCC(=O)N(C)[C@H]2CC[C@@H](CCN(C)C)CC2)c(C)c1 [(620)] | 8.23 | 
COc1cc(C)c(S(=O)(=O)N(C)CCOCC(=O)N(C)C[C@H]2CC[C@@](C)(CN3CCC3)C2(C)C)c(C)c1 [(621)] | 8.24 | 
CCN(CC)CCC(=O)N1CC[C@@H](N(C)C(=O)COCCN(C)S(=O)(=O)c2c(C)cc(OC)cc2C)C1 [(624)] | 8.10 | 
COc1cc(C)c(S(=O)(=O)N(C)CCOCC(=O)N(C)C2CCN(C(=O)CCN3CCCC3)CC2)c(C)c1 [(630)] | 8.26 | 
CCN(CC)CC1CCN(c2ccc(NC(=O)CCN(C)S(=O)(=O)c3c(C)cc(OC)cc3C)nn2)CC1 [Example 87] |  | 173

Results, then the compound that gave them:

pKi (hBK1 receptor) | melting point [°C] | Structure (SMILES)
8.47 |  | COc1cc(C)c(S(=O)(=O)N(C)CCOCC(=O)N(C)C[C@]2(C)CC[C@H](CN3CCCC3)C2(C)C)c(C)c1 [(423)]
8.85 |  | COc1cc(C)c(S(=O)(=O)N(C)CCOCC(=O)N(C)C2CCc3cc(CN4CCCC4)ccc32)c(C)c1 (stereo not shown) [(424)]
8.82 |  | COc1cc(C)c(S(=O)(=O)N(C)CCOCC(=O)N(C)[C@H]2CC[C@@H](CCN3CCCC3)CC2)c(C)c1 [(435)]
8.34 |  | COc1cc(C)c(S(=O)(=O)N(C)CCOCC(=O)N(C)[C@H]2CC[C@@H](CN3CC[C@@H](N(C)C)C3)CC2)c(C)c1 [(441)]
9.09 |  | COc1cc(C)c(S(=O)(=O)N(C)CCOCC(=O)N(C)[C@@H]2CCN([C@H]3CC[C@@H](N4CCCC4)CC3)C2)c(C)c1 [(448)]
8.37 |  | COc1cc(C)c(S(=O)(=O)N(C)CCOCC(=O)N(C)[C@@H]2CCN(C3CCN(CC4CC4)CC3)C2)c(C)c1 [(458)]
8.70 |  | COc1cc(C)c(S(=O)(=O)N(C)CCOCC(=O)N(C)[C@H]2CC[C@@H](CCN(C)CC3CC3)CC2)c(C)c1 [(463)]
8.82 |  | COc1cc(C)c(S(=O)(=O)N(C)CCOCC(=O)N(C)[C@H]2CC[C@@H](CCN3CCN(C)CC3)CC2)c(C)c1 [(464)]
8.42 |  | COc1cc(C)c(S(=O)(=O)N(C)CCOCC(=O)N(C)[C@H]2CCN(C3CCN(CC4CC4)CC3)C2)c(C)c1 [(465)]
9.00 |  | COc1cc(C)c(S(=O)(=O)N(C)CCOCC(=O)N(C)C2CCC(N3CCC(N4CCCC4)CC3)CC2)c(C)c1 (stereo not shown) [(468)]
8.39 |  | COc1cc(C)c(S(=O)(=O)N(C)CCOCC(=O)N(C)[C@H]2CC[C@@H](CN3CC[C@H](N4CCCC4)C3)CC2)c(C)c1 [(471)]
9.17 |  | COc1cc(C)c(S(=O)(=O)N(C)CCOCC(=O)N(C)[C@H]2CC[C@@H](CN3CC[C@@H](N4CCCC4)C3)CC2)c(C)c1 [(472)]
8.74 |  | COc1cc(C)c(S(=O)(=O)N(C)CCOCC(=O)N(C)[C@H]2CC[C@@H](CN3CCC[C@H](N(C)C)C3)CC2)c(C)c1 [(473)]
8.85 |  | COc1cc(C)c(S(=O)(=O)N(C)CCOCC(=O)N(C)C[C@H]2CC[C@@](C)(CN3CCCC3)C2(C)C)c(C)c1 [(474)]
8.62 |  | COc1cc(C)c(S(=O)(=O)N(C)CCOCC(=O)N(C)CC2CCN(C(=O)CCN3CCCC3)CC2)c(C)c1 [(475)]
8.63 |  | COc1cc(C)c(S(=O)(=O)N(C)CCOCC(=O)N(C)[C@H]2CC[C@@H](CN3CCC[C@@H](N(C)C)C3)CC2)c(C)c1 [(476)]
9.00 |  | COc1cc(C)c(S(=O)(=O)N(C)CCOCC(=O)N(C)[C@@H]2CCN(C3CCN(C4CCCC4)CC3)C2)c(C)c1 [(478)]
8.49 |  | COc1cc(C)c(S(=O)(=O)N(C)CC(=O)NCC(=O)N(C)Cc2ccc(NCCN(C)C)cc2)c(C)c1 [(492)]
9.07 |  | COc1cc(C)c(S(=O)(=O)N(C)CCOCC(=O)N(C)C[C@@H]2CCN(CCCN3CCCC3)C2)c(C)c1 [(576)]
9.47 |  | COc1cc(C)c(S(=O)(=O)N(C)CCOCC(=O)N(C)[C@@H]2CCN(C3CCN(C4CCC4)CC3)C2)c(C)c1 [(577)]
8.29 |  | COc1cc(C)c(S(=O)(=O)N(C)CCOCC(=O)N(C)CC2CCC(N3CCC(N(C)C)CC3)CC2)c(C)c1 (stereo not shown) [(586)]
8.82 |  | COc1cc(C)c(S(=O)(=O)N(C)CCOCC(=O)N(C)C2CCC(N3CCC(C4CCN(C)CC4)CC3)CC2)c(C)c1 (stereo not shown) [(588)]
8.72 |  | COc1cc(C)c(S(=O)(=O)N(C)CCOCC(=O)N(C)C[C@H]2CC[C@H](NCCN3CCCC3)CC2)c(C)c1 [(591)]
8.55 |  | COc1cc(C)c(S(=O)(=O)N(C)CCOCC(=O)N(C)[C@H]2CC[C@@H](CCN3CCC3)CC2)c(C)c1 [(592)]
8.70 |  | COc1cc(C)c(S(=O)(=O)N(C)CCOCC(=O)N(C)[C@H]2CC[C@@H](OCCN3CCCC3)CC2)c(C)c1 [(614)]
8.43 |  | COc1cc(C)c(S(=O)(=O)N(C)CCOCC(=O)N(C)C(C)[C@H]2CC[C@H](CN3CCCC3)CC2)c(C)c1 (stereo partly shown) [(616)]
8.92 |  | COc1cc(C)c(S(=O)(=O)N(C)CCOCC(=O)N(C)[C@H]2CC[C@@H](CCN3CCOCC3)CC2)c(C)c1 [(619)]
8.47 |  | COc1cc(C)c(S(=O)(=O)N(C)CCOCC(=O)N(C)[C@@H]2CCN(C(=O)CCN3CCCCC3)C2)c(C)c1 [(623)]
